In PubChem BioAssay AID504562 (Southern Research Specialized Biocontainment Screening …, 2011):
The source made the active and inactive calls. No rule for the calls is given here. Residues, ends and D or L forms follow the SMILES beside them. *: point of attachment. Cbz = O=C(OCc1ccccc1)*

Tested on: mammalian cell viability, cytotoxicity counter-screen
Experiment: mammalian cell cytotoxicity, dose response, cytotoxicity control for M. tuberculosis growth inhibitor project, purified and synthesized compounds, set 2 (AID 504562)
Details: not given

Row | Compound | CC50 [µM]
1 | CCC(C)Nc1ccc(NC(C)CC)cc1 (stereo unspecified) | 16.5
2 | CCOC(=O)CNC(=O)[C@H](Cc1ccccc1)NC(=O)OCc1ccccc1 (Cbz-Phe-Gly-OEt) | 68.9
3 | Cc1cccc(/C=C/C(=O)c2ccc([N+](=O)[O-])o2)c1 | 53.1
4 | COC(=O)c1cc(=O)n(-c2ccc(F)cc2)c(=Nc2ccc(F)cc2)s1 | 20.8
5 | CCOC(=O)c1ccc(NC(=O)Cn2ncc(Cl)c(Cl)c2=O)cc1 | 7.7
6 | COC(=O)C(Nc1nc(SCC(=O)NC2CCCCC2)nc2ccccc12)c1ccccc1 (stereo unspecified) | 88
7 | CC(C)NC(=O)c1sc(=S)n2c1[nH]c(=O)c1ccc(C(=O)NCCc3ccc(Cl)cc3)cc12 | 68.8
8 | Cc1ccc(C(=O)N/N=C(/CC(=O)c2cccs2)C(F)(F)F)cc1 | 31.7
9 | CNc1nc(SCc2ccccc2Cl)nc2c1CCCC2 | 46.1
10 | S=c1nc[nH]c2nc[nH]c12 | 38.1
11 | Cc1ccc2c(c1)c(C1=c3ccccc3=NC1=O)c(O)n2C | 14.3

Tested on: not listed separately
Experiment: as above
Details: mammalian cell viability, cytotoxicity counter-screen; at 100 µM (top of the series)

Row | Compound | viability
12 | Cc1ccc2ccc3ccc(C)nc3c2n1 | 68.3% (inactive)
13 | Cc1nc(SCC(=O)NC2CCCCC2)[nH]c(=O)c1C | 91.7% (inactive)
14 | COC(=O)C1CC(=O)N(c2ccc(OCc3ccccc3Cl)cc2)C1 (stereo unspecified) | 100% (inactive)
15 | COC(=O)C(C)Oc1ccc(-c2nccc(-c3ccccn3)n2)cc1 (stereo unspecified) | 100% (inactive)
16 | CCc1ccc(/C=C2/C(=O)N(C)C(=S)N2CC(=O)OC)s1 | 101% (inactive)
17 | O=C(CSc1nc2ccccc2c(=O)[nH]1)NCc1ccc(Cl)cc1 | 89.5% (inactive)
18 | CC1CCN(C(=O)C2CCN(c3nnc(-n4cccc4)s3)CC2)CC1 | 92.8% (inactive)
19 | O=C1C(Br)=Cc2cccc3cccc1c23 | 89.2% (inactive)
20 | COC(=O)CCc1nc2c(C#N)c(-c3ccc(Cl)cc3)ccn2n1 | 99.6% (inactive)
21 | O=C(CSc1nc2ccccc2c(=O)[nH]1)NC1CCCCC1 | 97.5% (inactive)
22 | CCOC1OC(=O)C(Cl)=C1Nc1ccccc1C (stereo unspecified) | 91.1% (inactive)
23 | CCOC(=O)COc1ccc(/C=C2\NC(=S)N(CC)C2=O)cc1 | 91.2% (inactive)
24 | Nc1c(C(=O)NC2CCCCC2)nsc1C(=O)OCC(=O)NC1CCCCC1 | 93.5% (inactive)
25 | O=C(/C=C\c1cccs1)N1CCN(Cc2ccc3c(c2)OCO3)CC1 | 91.2% (inactive)
26 | CC[N+](C)(CC)CCCCOc1ccc2c(c1)C(=O)c1cc(OCCCC[N+](C)(CC)CC)ccc1-2 | 101% (inactive)
27 | COc1cc(NC(=O)C/C(C)=N/NC(=O)c2ccccn2)c(OC)cc1Cl | 103% (inactive)
28 | COC(=O)c1ccc(CNc2c(N3CCCC3)c(=O)c2=O)cc1 | 97.3% (inactive)
29 | CC(=NCc1ccc2c(c1)OCO2)C1=C(O)c2ccccc2C1=O | 88.7% (inactive)
30 | Cc1ccc(NC(=O)C2C3/C=C\CCCCC32)cc1C (stereo unspecified) | 97% (inactive)
31 | CCOC(=O)COn1c2c(c3c4no[n+]([O-])c4ccc31)CCCC2 | 87.9% (inactive)
